# According to patent publication US20150064713A1, “METHODS, KITS AND MEANS FOR DETERMINING INTRACELLULAR INTERACTIONS” (priority 2013, published 2015):
# System: regulatory and catalytic subunits of the cAMP dependent protein kinase A (PKA)
# Test: PKA regulatory/catalytic subunit interaction monitored in living cells via VSVG RII-β-PARC (bait) and mCherry-cat-α (prey), TIRFM
# Format: cell-based
# Settings: mCherry-cat-α prey, within seconds upon addition
# Description: FIG. 8 Monitoring protein reaction dynamics inside individual cells. A: Domain structures of bait-PARCs to measure PKA subunit interactions. B: A bait-PARC containing the regulatory domain RII-β of PKA was co-expressed with the cytosolic prey protein (mCherry-cat- ? to monitor their interaction dynamics inside living cells. Left: Recruitment of the prey to bait microstructures before and after pharmacological perturbation. Right: Derived prey recruitment kinetics (Iso: Isoproterenol; Prop: Propranolol; F/I: forskolin+IBMX; see Supplementary Methods for details). Scale bar: 5 μm. c: Two distinct regulatory domains on bait-PARCs were co-expressed together with the prey protein mCherry-cat- ? . Left: Image of a representative experiment depicting cells grown on a DNA-immobilized antibody array. The checkerboard pattern of antibodies is overlayed with magenta (anti-HA) or cyan (anti-VSVG) circles. Right: The recruitment of prey proteins to the two distinct bait proteins was monitored in individual microstructured spots via TIRFM during pharmacological perturbation (Iso: Isoproterenol; ATP: adenosine triphosphate; F/I: forskolin+IBMX). Scale bar: 10 μm.
# Agonist induced activation of G-protein coupled receptors (GPCRs) leads to the dissociation of regulatory and catalytic subunits of the cAMP dependent protein kinase A (PKA) (Wong and Scott, 2004). […]
compound,measurement,value
CC(C)NCC(O)c1ccc(O)c(O)c1 (stereo not shown) [isoproterenol],interaction between bait and prey upon addition of agonist,the interaction between bait and prey was lost
